Experiments:
[1] = tested on: A. baumannii; assay: Kirby-Bauer disk diffusion susceptibility test; assay type: cell-based; details: 300 μg
Method: (§1) Bacterial strains, from clinical origin, were supplied by the National Center for Microbiology, Institute of Health Carlos III (Majadahonda, Madrid). They are detailed in Table 1.
(§2) Bacterial cells suspension in sterile saline was prepared from a culture of 24-72 h, depending on bacterial species, in Mueller-Hinton Agar with 5% sheep blood. Each suspension was adjusted to a fixed size inoculum of 1-5×10^8 CFU/ml with a spectrophotometer (Ferraro, MJ National Committee for Clinical Laboratory Standards. 2000).
(§3) Kirby-Bauer disk diffusion susceptibility test protocol was utilized to determine the sensitivity or resistance of pathogenic bacteria against the compounds and others antibiotics. The absence of growth around the disks is an indirect measure of the ability of this compound to inhibit an organism (Kirby, W., et al., Antibiotics Annu. 1956-1957:892). After 18 to 72 hours of incubation at 37° C., with or without CO2, under aerobic or anaerobic conditions, depending on the bacterial species, halo of growth inhibition were obtained and evaluated.
(§4) Interpretation of susceptibility and resistance was based on the presence or absence of a zone of inhibition surrounding the disk. Kirby-Bauer disk diffusion susceptibility test is a common method which uses antibiotic-impregnated wafers to test whether bacteria are affected by antibiotics. The size of the zone of inhibition depends on how effective the antibiotic is at stopping the growth of the bacterium. A stronger antibiotic will create a larger zone, because a lower concentration of the antibiotic is enough to stop growth.
(§5) All compounds were tested at 300 μg/disc.

[2] = tested on: C. difficile; assay: Kirby-Bauer disk diffusion susceptibility test; assay type: cell-based; details: 300 μg
Method: as §1, §2, §3, §4, §5

[3] = tested on: E. cloacae; assay: Kirby-Bauer disk diffusion susceptibility test; assay type: cell-based; details: 300 μg
Method: as §1, §2, §3, §4, §5

[4] = tested on: E. coli; assay: Kirby-Bauer disk diffusion susceptibility test; assay type: cell-based; details: 300 μg
Method: as §1, §2, §3, §4, §5

[5] = tested on: E. faecalis; assay: Kirby-Bauer disk diffusion susceptibility test; assay type: cell-based; details: E. foecalis; 300 μg
Method: as §1, §2, §3, §4, §5

[6] = tested on: E. faecium; assay: Kirby-Bauer disk diffusion susceptibility test; assay type: cell-based; details: 300 μg
Method: as §1, §2, §3, §4, §5

[7] = tested on: K. pneumoniae; assay: Kirby-Bauer disk diffusion susceptibility test; assay type: cell-based; details: 300 μg
Method: as §1, §2, §3, §4, §5

[8] = tested on: M. abscessus; assay: Kirby-Bauer disk diffusion susceptibility test; assay type: cell-based; details: 300 μg
Method: as §1, §2, §3, §4, §5

[9] = tested on: N. carnea; assay: Kirby-Bauer disk diffusion susceptibility test; assay type: cell-based; details: 300 μg
Method: as §1, §2, §3, §4, §5

[10] = tested on: N. cyriacigeorgica; assay: Kirby-Bauer disk diffusion susceptibility test; assay type: cell-based; details: 300 μg
Method: as §1, §2, §3, §4, §5

[11] = tested on: P. aeruginosa; assay: Kirby-Bauer disk diffusion susceptibility test; assay type: cell-based; details: 300 μg
Method: as §1, §2, §3, §4, §5

[12] = tested on: S. epidermidis; assay: Kirby-Bauer disk diffusion susceptibility test; assay type: cell-based; details: 300 μg
Method: as §1, §2, §3, §4, §5

[13] = tested on: S. pneumoniae; assay: Kirby-Bauer disk diffusion susceptibility test; assay type: cell-based; details: 300 μg
Method: as §1, §2, §3, §4, §5

[14] = tested on: T. pulmonis; assay: Kirby-Bauer disk diffusion susceptibility test; assay type: cell-based; details: 300 μg
Method: as §1, §2, §3, §4, §5

[15] = tested on: C. albicans; design: key: I = intermediate activity; S = susceptibility; R = Resistance; details: C. albicans clinical strain; cited from earlier work
[16] = tested on: C. glabrata; design: key: I = intermediate activity; S = susceptibility; R = Resistance; details: C. glabrata clinical strain; cited from earlier work
[17] = tested on: C. tropicalis; design: key: I = intermediate activity; S = susceptibility; R = Resistance; details: C. tropicalis clinical strain; cited from earlier work
[18] = tested on: C. parapsilosis; design: key: I = intermediate activity; S = susceptibility; R = Resistance; details: C. parapsilosis clinical strain; cited from earlier work
[19] = tested on: C. lusitaniae; design: key: I = intermediate activity; S = susceptibility; R = Resistance; details: C. lusitaniae clinical strain; cited from earlier work
[20] = tested on: C. Krusei; design: key: I = intermediate activity; S = susceptibility; R = Resistance; details: C. Krusei clinical strain; cited from earlier work
[21] = tested on: C. guillermondii; design: key: I = intermediate activity; S = susceptibility; R = Resistance; details: C. guillermondii clinical strain; cited from earlier work
[22] = tested on: A. fumigatus; design: key: I = intermediate activity; S = susceptibility; R = Resistance; details: A. fumigatus clinical strain; cited from earlier work
[23] = tested on: A. niger; design: key: I = intermediate activity; S = susceptibility; R = Resistance; details: A. niger clinical strain; cited from earlier work
[24] = tested on: A. terreus; design: key: I = intermediate activity; S = susceptibility; R = Resistance; details: A. terreus clinical strain; cited from earlier work
[25] = tested on: A. flavus; design: key: I = intermediate activity; S = susceptibility; R = Resistance; details: A. flavus clinical strain; cited from earlier work
[26] = tested on: S. cerevisiae; design: key: I = intermediate activity; S = susceptibility; R = Resistance; details: S. cerevisiae clinical strain; cited from earlier work
[27] = tested on: A. flavus; assay: Antifungal disk diffusion susceptibility test (CLSI M44); assay type: cell-based; details: Aspergillus flavus; A. flavus; 10 μg control
Method: (§6) Filamentous fungi and yeasts strains, from clinical origin, were supplied by Microbiology Service from The Princess Hospital, Madrid. They are detailed in Table IX.
(§7) Filamentous fungi and yeast cells suspensions in distilled water was prepared from a culture of 24-48 h, depending on species, in Sabouraud agar. Each suspension was adjusted to a fixed size inoculum of 1-5×10^8 CFU/ml with a spectrophotometer (Ferraro, MJ National Committee for Clinical Laboratory Standards. 2000).
(§8) Antifungal susceptibility tests were developed following the standardized methodology detailed in document CLSI: M44-4: Method for Antifungal Disk diffusion susceptibility testing of yeasts consisting of disk diffusion on agar Muller-Hinton (supplemented with 2% glucose).

[28] = tested on: A. fumigatus; assay: as above; assay type: cell-based; details: Aspergillus fumigatus; A. fumigatus; 10 μg control
Method: as §6, §7, §8

[29] = tested on: A. niger; assay: as above; assay type: cell-based; details: Aspergillus niger; A. niger; 10 μg control
Method: as §6, §7, §8

[30] = tested on: A. terreus; assay: as above; assay type: cell-based; details: Aspergillus terreus; A. terreus; 10 μg control
Method: as §6, §7, §8

[31] = tested on: C. albicans; assay: as above; assay type: cell-based; details: Candida albicans; C. albicans; 10 μg control
Method: as §6, §7, §8

[32] = tested on: C. guillermondii; assay: as above; assay type: cell-based; details: C. guillermondii; 10 μg control
Method: as §6, §7, §8

[33] = tested on: C. lusitaniae; assay: as above; assay type: cell-based; details: Clavispora lusitaniae; C. lusitaniae; 10 μg control
Method: as §6, §7, §8

[34] = tested on: C. parapsilosis; assay: as above; assay type: cell-based; details: Lodderomyces parapsilosis; C. parapsilosis; 10 μg control
Method: as §6, §7, §8

[35] = tested on: C. tropicalis; assay: as above; assay type: cell-based; details: Candida tropicalis; C. tropicalis; 10 μg control
Method: as §6, §7, §8

[36] = tested on: S. cerevisiae; assay: as above; assay type: cell-based; details: Saccharomyces cerevisiae; S. cerevisiae; 10 μg control
Method: as §6, §7, §8

SMILES | Antibiotic activity (Table VIII, zone of inhibition) [1] [mm] | Antibiotic activity (Table VIII, zone of inhibition) [2] [mm] | Antibiotic activity (Table VIII, zone of inhibition) [3] [mm] | Antibiotic activity (Table VIII, zone of inhibition) [4] [mm] | Antibiotic activity (Table VIII, zone of inhibition) [5] [mm] | Antibiotic activity (Table VIII, zone of inhibition) [6] [mm] | Antibiotic activity (Table VIII, zone of inhibition) [7] [mm] | Antibiotic activity (Table VIII, zone of inhibition) [8] [mm] | Antibiotic activity (Table VIII, zone of inhibition) [9] [mm] | Antibiotic activity (Table VIII, zone of inhibition) [10] [mm] | Antibiotic activity (Table VIII, zone of inhibition) [11] [mm] | Antibiotic activity (Table VIII, zone of inhibition) [12] [mm] | Antibiotic activity (Table VIII, zone of inhibition) [13] [mm] | Antibiotic activity (Table VIII, zone of inhibition) [14] [mm] | Susceptibility of the strain [15] | Susceptibility of the strain [16] | Susceptibility of the strain [17] | Susceptibility of the strain [18] | Susceptibility of the strain [19] | Susceptibility of the strain [20] | other results
NNC(=O)C(=O)NNc1ccc(OC(=O)c2ccccc2)cc1 [MSG-231] | 20 | 24 | 10 | 17 | 29 | 27 | 10 | 27 | 38 | 33 | 11 | 33 | 24 | 27 |  |  |  |  |  |  | 
OC(Cn1cncn1)(Cn1cncn1)c1ccc(F)cc1F [Fluconazole] |  |  |  |  |  |  |  |  |  |  |  |  |  |  | S | S | S | S | S | S | Susceptibility of the strain [21]: R; Susceptibility of the strain [22]: R; Susceptibility of the strain [23]: R; Susceptibility of the strain [24]: R; Susceptibility of the strain [25]: R; Susceptibility of the strain [26]: S
COc1ccccc1NNC(=O)C(=O)NN [MSG-235] | 15 | 20 | 11 | 14 | 25 | 22 | 12 | 23 | 34 | 29 | 11 | 27 | 21 | 24 |  |  |  |  |  |  | 
Clc1ccccc1C(c1ccccc1)(c1ccccc1)n1ccnc1 [Clo, clotrimazol] |  |  |  |  |  |  |  |  |  |  |  |  |  |  | S | S | S | S | S | S | zone of inhibition at 10 µg/disc [27]: 32 mm; zone of inhibition at 10 µg/disc [28]: 22 mm; zone of inhibition at 10 µg/disc [29]: 25 mm; zone of inhibition at 10 µg/disc [30]: 26 mm; zone of inhibition at 10 µg/disc [31]: 15 mm; zone of inhibition at 10 µg/disc [32]: 44 mm; zone of inhibition at 10 µg/disc [33]: 41 mm; zone of inhibition at 10 µg/disc [34]: 42 mm; zone of inhibition at 10 µg/disc [35]: 25 mm; zone of inhibition at 10 µg/disc [36]: 30 mm; Susceptibility of the strain [21]: R; Susceptibility of the strain [22]: S; Susceptibility of the strain [23]: S; Susceptibility of the strain [24]: S; Susceptibility of the strain [25]: S; Susceptibility of the strain [26]: R
